Experiment: Human HepG2 cell viability assay in 384 well format
Type: toxicity, cell-based
Set-up: dose 125 nL, time 70.5 hour; concentration not given beside the values
Settings: HepG2 cells, read-out: Inhibition

Structure (SMILES)	cytotoxicity at 70.5 h [%]
CC[C@H](C)[C@H](NC(=O)c1ccccc1-n1cnnn1)C(=O)OC	33.9
Cc1nc(N2CCN(C(=O)C(C)(C)C)CC2)cc(-n2cnc(C)c2C)n1	13
CCNC(=O)NC(=O)CN1CCC(c2c[nH]c3ccc(OC)cc23)CC1	24.1
CC(Cn1cccn1)NC(=O)Nc1ccc(N2CCCC2)nc1 (stereo not drawn)	10.1
COc1ccccc1CC1CCCN(CC(=O)N2CCOCC2)C1 (stereo not drawn)	-6.05
CCCC(Nc1c(C#N)c(=O)n(C)c(=O)n1C)c1ccc(F)cc1F (stereo not drawn)	9.48
N#Cc1cccnc1N1CCC(c2nc(C(F)(F)F)c[nH]2)CC1	-15.7
CN(C)CCOCC1CN(C(=O)c2cccnc2)Cc2ccnn2C1 (stereo not drawn)	-6.34
CC1CCCCN1c1nc2c(c(=O)[nH]1)CCN(Cc1cccnc1)C2 (stereo not drawn)	-3.39
Cc1noc2nc3c(c(C(=O)/N=c4\[nH]ncs4)c12)CCC3	25.6
CNc1ncccc1CN1CCN(c2cc(NC3CC3)nc(N)n2)CC1	0.197
Cc1ncnc(NCCCN2CCCCC2CO)c1C (stereo not drawn)	-1.1
COc1ccc(CN(Cc2ccccn2)Cc2cncn2C)cc1	-1.37
CNC(=O)C1(C)CCCN(c2cnccn2)C1 (stereo not drawn)	-8.04
CCc1cc(CN(C)C(=O)c2nnc(CN(C)C)o2)on1	-4.97
CCc1nc(C2CCCN(C(=O)C3=NN(C(C)C)C(=O)CC3)C2)no1 (stereo not drawn)	-13.3
CCc1ccc(C(=O)N2CC(C(=O)NC(C)C)C3(CCOCC3)C2)cc1 (stereo not drawn)	-20.6
Nc1ncccc1C(=O)NCc1cccc(Br)c1	13.7
CC(C)CN1CCN(S(=O)(=O)c2cn(C)cn2)[C@H]2CS(=O)(=O)C[C@H]21	-9.12
Cn1ncc2c1C(COCC1CC1)CN(C(=O)Cc1ccsc1)C2 (stereo not drawn)	-2.83
CC(C)c1nnc(CNCC2CCCN2c2cccnn2)o1 (stereo not drawn)	-6.87
COc1ccc(CCN)cc1-c1ccc(O)cc1	-13.9
O=C(NCc1ccnc(OCC2CC2)c1)C1Cc2ccccc2O1 (stereo not drawn)	-4.48

Structure (SMILES)	cytotoxicity at 70.5 h [%]
CNS(=O)(=O)c1ccc(C(=O)N2CCCC2c2ccncc2)o1 (stereo not drawn)	-2.81
CC(C)(C)Nc1c(C2CCN(C(=O)C3CC3)CC2)nc2ccccn12	17.8
O=C(NCC1CCCO1)Nc1nnc(C(F)(F)F)s1 (stereo not drawn)	-15.8
CC(C(=O)Nc1cccc(Cl)c1)N1CCN(Cc2ncc[nH]2)CC1 (stereo not drawn)	-10.6
COCCN1CCO[C@@H]2CN(C(=O)Cc3ccccc3)CC[C@@H]2C1	-0.0515
O=C(NC[C@H]1C[C@@H]2CN(C(=O)c3ccco3)C[C@@H]2O1)c1ccsc1	-3.16
CCc1ccc(S(=O)(=O)Nc2cc(C(=O)O)ccc2F)s1	-3.74
CC(C)C[C@H](NC(=O)c1cc(-c2cccn2C)n[nH]1)C(N)=O	-0.791
CCC(NC(=O)C1CCN(S(C)(=O)=O)CC1)c1ccc(C)c(C)c1 (stereo not drawn)	-4.17
CCc1ccccc1OC1CN(C(=O)c2ccsc2)C1	-3.52
N#Cc1ccc(N2CCCC3(CCN(c4cccnc4)CC3)C2)cc1	51.2
COCCN1C[C@H]2CC[C@@H]1CN(Cc1ccc3ccccc3n1)C2	-5.95
CC(C)Cc1noc(CN(C)C(=O)CCNC(=O)c2ccccc2F)n1	-8.23
Cc1ccc(-c2ccnc(NC(C)c3ncc[nH]3)n2)c(C)n1 (stereo not drawn)	-10.5
CC(C)(C)CN(CCO)C(=O)Nc1cccc(N2CCNC2=O)c1	-4.71
CC(C)C(=O)N1CCCC2(CCCN2CC2CCCC2)C1 (stereo not drawn)	-2.41
O=C(N[C@@H]1CCN(Cc2cccc3nonc23)C[C@H]1O)c1cccnc1	-13.7
CNC(=O)C1(C)CN(c2nnc(C)c3ccccc23)CCO1 (stereo not drawn)	-6.81
CCC(C)NC(=O)c1ccccc1-n1cnnn1 (stereo not drawn)	-11.4
CC(=O)N1CCN(Cc2c(C)ccc3ccccc23)CC(O)C1 (stereo not drawn)	-6.49
Cc1nc(C2CCCN2Cc2ccc(S(=O)(=O)N(C)C)o2)no1 (stereo not drawn)	-5.97
CCCC(NC(=O)c1cc(C)n(C2CC2)c1C)c1nnn[nH]1 (stereo not drawn)	-0.607
Cc1cccc(OC2CCN(C(=O)c3ccc4ncsc4c3)CC2)n1	0.229

Structure (SMILES)	cytotoxicity at 70.5 h [%]
CCOCc1nc2c(c(NC(CC)c3ccncc3)n1)CCNCC2 (stereo not drawn)	1.72
COc1cccc(CN(C)CC(=O)NC2(C)CCS(=O)(=O)C2)c1 (stereo not drawn)	-15.4
Cn1cncc1CNC1CC2(CCN(S(C)(=O)=O)CC2)c2ccccc21 (stereo not drawn)	-2.27
Cc1cc(C)cc(CCC(=O)N(C)CCc2cn[nH]c2)c1	-14.2
Cn1ccnc1C(O)(CCNCc1ccco1)C(F)(F)F (stereo not drawn)	5.83
CNC(=O)c1ncn2c1CN(CCC(C)C)S(=O)(=O)c1ccccc1-2	-9.5
CC(C)N(C)CCNC(=O)NCc1ccccc1-n1cccn1	-7.41
CN1CCN(Cc2cnc3n2CCN(C(=O)c2ccncc2)C3)CC1	-10.3
O=C(NCCCn1nc2ccccn2c1=O)NC1CCC(O)CC1 (stereo not drawn)	9.94
Cc1cccc(CN2CC3C[C@]3(NC(=O)c3cccc(F)c3)C2)n1 (stereo partly drawn)	-12.2
O=C(NCC1(O)CCSCC1)c1ccoc1	-1.38
Cc1nc(N(C)C)nc(C)c1NS(=O)(=O)c1ccc(F)cc1F	-2.45
CC(C)N(C)CC(=O)NCC(Cc1ccc(F)cc1)C(N)=O (stereo not drawn)	1.22
N#Cc1ccc(OC2CCN(C(=O)c3cncc(Br)c3)CC2)nc1	-9.99
O=C(NC1CC1)N1CCOCC2(C1)CN(c1ccccc1)C(=O)CO2 (stereo not drawn)	-9.6
CC(=O)NC1CCN(c2cc(C3CCNCC3)ccn2)CC1	-2.92
Cc1nccn1-c1ccc(=O)n(CCNC(=O)c2c(F)cccc2Cl)n1	-6.16
c1cnn(Cc2nnc(C3CCN(C4CCOCC4)CC3)n2C2CC2)c1	-10.6
COC(=O)CCNC(=O)c1nnn(-c2ccc(F)cc2)c1C1CC1	-10.2
CO[C@@H]1CN(S(=O)(=O)c2cn(C)cn2)[C@@H]2CCCO[C@@H]21	-4.74
CC(=O)N(Cc1ncc(C)o1)C1CCN(CCc2ccncc2)C1 (stereo not drawn)	7.37
Cc1cnc(NC(=O)NC(CCO)c2cccs2)s1 (stereo not drawn)	-3.17
Cc1cc(C)nc(N2CCCC(C)(c3[nH]ncc3C(=O)N(C)C)C2)n1 (stereo not drawn)	-4.44

Structure (SMILES)	cytotoxicity at 70.5 h [%]
CC(=O)c1nn(-c2cccc(Cl)c2)c(C)c1C(C)=O	-12.9
O=C(c1cnc2[nH]c(=O)[nH]c(=O)c2c1)N1CCCC1C1CCCCC1 (stereo not drawn)	-5.02
CC(C)CNC[C@H]1COCc2nc3cccnc3n21	10
Cn1ccc(CN2CCC(OCc3ccccc3)CC2)cc1=O	21.5
CC(NCc1cccc2c1OCCO2)c1cc2c(cc1Br)OCCO2 (stereo not drawn)	-7.55
COC(=O)COn1c(SCC(=O)OC)nc2ccccc2c1=O	-6.15
Cc1cc(F)ccc1-n1cc(O)c(C(=O)NCC[S+](C)[O-])n1 (stereo not drawn)	8.16
CC(=O)c1cccc(OCCCC(=O)N(C)Cc2cnn(C)c2)c1	9.09
O=C(NCCNCC1CNc2ccnn2C1)c1ccc(F)cc1 (stereo not drawn)	-6.67
CN1C[C@@H]2CN(C(=O)C3CC=CC3)C[C@@H]2C1=O	-5.58
O=C(O)c1cc2c(c(S(=O)(=O)N(CCCO)c3ccccc3)c1)CCC2	-10.1
CN(C)CCN1CCOCC2(C1)CN(Cc1ccsc1)CCO2 (stereo not drawn)	-9.68
CC(C)COC(C)C(=O)N1CCCCCC1 (stereo not drawn)	-8.79
CCS(=O)(=O)Nc1cnn(Cc2cccc(Cl)c2)c1	-10.7
Cc1nnc([C@H]2CCN(CCCc3ccccc3)C2)o1	8.95
CC(C)C(Sc1nnnn1C1CC1)C(=O)NCc1cccnc1 (stereo not drawn)	-7.01
CCCc1nc(C(=O)N2CCN(C(=O)OC)CC2)cs1	-4.71
Cc1oc(-c2ccccc2)nc1CC(=O)NC1=NCCS1	-11
CC(Nc1cccc(COCc2ccco2)c1)C(=O)NC(N)=O (stereo not drawn)	-23
Cc1ccc(NC(=O)N2CCCC(O)(CO)CC2)cc1Cl (stereo not drawn)	-4.85
Cc1ncsc1CNC(=O)N1CCN(Cc2ccccc2)C[C@H]1C	-3.58
COc1c(CNCCc2c[nH]c3cc(F)ccc23)c(C)nn1C	3.85
CCS(=O)(=O)N1C[C@@H](O)[C@H](Oc2cccc(F)c2)C1	-9.71

Structure (SMILES)	cytotoxicity at 70.5 h [%]
Cc1cc(C)nc(Nc2nccnc2C2CCCN(C(C)C)C2)n1 (stereo not drawn)	1.6
O=S(=O)(CC1CCOCC1)NCc1ncc(-c2ccccc2)o1	-5.19
CCn1cnnc1C1CCN(C(=O)c2cc(C)n(CC)c2C)CC1	-5.03
COc1cc(N2CCC[C@]3(C(=O)O)CN(C(C)C)C[C@@H]3C2)ncn1	-3.84
CCOCc1nn(CC2CC2)c2c1CN(Cc1ccco1)CC2	-6.88
CC1CCC(NC(=O)CNC2(c3ccc(F)cc3)CCOCC2)CC1 (stereo not drawn)	-3.54
Cc1nn2c(N3CCS(=O)(=O)CC3)cc(-c3ccccc3)nc2c1C	1.53
Cc1ccc(C2C3=C(COC3=O)Nc3[nH]nc(C)c32)cc1C (stereo not drawn)	-3.38
CCN(CC)CCCNC(=O)C(C)n1cc(Br)cn1 (stereo not drawn)	-1.37
COCCNC(=O)CCc1c(C)nn(-c2nc(C)c(C)c(=O)[nH]2)c1C	-1.63
Cc1cnn(CC(C)NCc2nc(-c3ccco3)no2)c1 (stereo not drawn)	2.25
c1ccc(C2=NOC3(CCN(Cc4c[nH]c5ccccc45)CC3)C2)cc1	11.1
Cc1nccn1C1CCCN(C(=O)c2ccc3c(c2)nnn3C)C1 (stereo not drawn)	-6.07
Cc1nc(N2CCN(C(=O)CC3CCCC3)CC2)c2cnn(C)c2n1	0.786
Cc1nn(C)c(C)c1C1CCCN1Cc1nc2ccccc2n1C (stereo not drawn)	0.883
Cc1cc(N2CCCC2c2cncc(N(C)C)n2)ncn1 (stereo not drawn)	1.3
Cc1nnc(N2CCC(CS(N)(=O)=O)CC2)c(C#N)c1C	-9.82
COCC(=O)N1CCC(C(=O)Nc2ccc(C(C)=O)cc2)CC1	-7.91
Cn1cccc1C(=O)N1CCn2cc(CNC(=O)CC3CC3)nc2C1	-10.2
COCCN(CCOC)c1ncccc1I	-4.47
O=C(C1CCOC1)N1CCN(CCn2cccn2)c2ncccc2C1 (stereo not drawn)	-1.8

Reference: ChEMBL document CHEMBL3507680, “University of Dundee, Gates Library screen for HepG2 cell viability”
